Test results: patent US20070264229A1, “Peptides for Treatment of Autoimmune Disease” (priority 2004, published 2007)
Read-outs that look alike come from different tables or passages of the source.

Experiments:
[1] = tested on: PLP139-151-specific CD4+ T cells; assay: Detection of PLP 139-151-reactive CD4+ T cells with I-As/PLP 139-151 tetramers; assay type: in vivo, mouse; settings: SJL mice immunized with PLP139-151 alone, cultured 4 days, FIG. 7A
Protocol: After 10 days, lymphocytes were cultured with PLP 139-151. Four days later, after gating with anti-CD4, anti-CD25, and 7-amino-actinomycin D (7-AAD), live cells were incubated with I-A^s tetramers with PLP 139-151 (left) or with control peptide TMEV 70-86 (right) for 3 hrs. The I-A^s/tetramer-stained cells were determined in live CD4^+ T cell subset after eliminating dead cells (7-AAD positive).
SJL/J mice in groups of 3 animals were immunized with CFA alone or with PLP 139-151, with or without each of the peptides (75 μg each/mouse) in CFA. On day 10, all mice were sacrificed, and single cell suspensions were prepared and cultured at a density of 5×10^6 cells per ml in DMEM medium containing 10% fetal calf serum (FCS), 2 mM L-glutamine, 10 mM HEPES, 2 mM mercaptoethanol, penicillin (1000 U/ml) and streptomycin (1 μg/ml) (Biowhittaker, Walkersville, Md.). The cultures from each of the above groups were re-stimulated with PLP 139-151 with or without peptides (25 μg per ml). The mice treated with CFA only were used as negative control to validate immunizations; the PLP 139-151-immunized mice were used as positive controls to which the effect of peptides on PLP 139-151-specific CD4^+ T cell responses was compared.
After 4 days of culturing, cell suspensions were subjected to Ficoll-Hypaque density gradient centrifugation and were washed twice using PBS. […]

[2] = tested on: spleen and lymph node cells of SJL/J mice; assay: Cytokine measurement by ELISA in cultures from immunized SJL/J mice; assay type: cell-based, mouse; settings: re-stimulated with cognate peptide 2 days, FIG. 4
Protocol: After ten days, single cell suspensions derived from lymph nodes and spleens were re-stimulated with the corresponding peptides in the presence of antigen presenting cells for two days. Culture supernatants were analyzed for amount of secretion of IL-2, IL-4, IL-10 and IFN-γ by ELISA.
Cytokine mAb directed against each of IL-2, IL-4, IL-10, and IFN-γ was coated into wells of 96-well plates at a concentration of 1 μg/ml overnight. Plates were washed and were treated with blocking solution (Kierkegaard and Perry, Gaithersburg, Md.), followed by incubation of each of the cytokine standards and the culture supernatants overnight at 4° C. After washing, plates were incubated with corresponding biotinylated anti-cytokine-detecting mAb (1 μg/ml) for 2 hrs. Plates were developed by addition of avidin/peroxidase and its substrate. The mAb pairs used were from the following clones: IL-2: JES6-A112, and JES6-5H4; IL-4: 11B11 and BVD6-24G2; IL-10: JES5-16E3 and SXC-1; and IFN-γ: R4-6A2 and XMG 1.2 (PharMingen).

[3] = tested on: spleen and lymph node cells of SJL/J mice; settings: copolymer, Illés 2004 / Stern 2004 PNAS; cited from earlier work
[4] = tested on: PLP139-151 specific cell line; assay: Cross-reactivity with PLP139-151 specific cell line; assay type: cell-based, mouse; settings: FIG. 3B
Protocol: The proliferative responses were measured as CPM after pulsing with ^3[H] thymidine.

relapsing-remitting MS = settings: relapsing-remitting forms of MS, cited from earlier work
[5] = tested on: EAE in HLA-DR2 and MBP85-99-specific TCR double tg mice; settings: previous study, Illés 2004 PNAS 101:11749; cited from earlier work
[6] = tested on: MBP85-99-specific transgenic (hVβ2+CD4+) and endogenous (hVβ2−CD4+) T cells; assay: Cross-reactivity: proliferation of sorted transgenic and endogenous CD4+ T cells from humanized mice; assay type: cell-based, mouse; settings: 10 μg/ml MBP85-99 or 100 μg/ml peptide, FIG. 3A
Protocol: To sort human TCR transgenic T cells specific to MBP 85-99, splenocytes from humanized mice were incubated with anti-CD4-APC (clone GK1.5, obtained from PharMingen, San Diego, Calif.) and anti-human Vβ2-PE (Immunotech, Marseille, France) at room temperature for 20 min. After washing twice, tg and endogenous or non-tg CD4 T cells (hVβ2^−CD4 cells) were sorted using a FACS Vantage SE apparatus (Becton Dickinson, San Diego, Calif.). The purity of fractionated hVβ2^+CD4^+ and hVβ2^−CD4^+ T cells was determined to be 98-99%.
SJL/J mice were immunized with PLP 139-151 or with each of the peptides (100 μg per mouse) emulsified in complete Freund's adjuvant (CFA; Difco Laboratories, Detroit, Mich.). Ten days later, single cell suspensions were prepared from spleens and lymph nodes, and were stimulated and re-stimulated with corresponding peptides at a concentration of 10 μg/ml in the presence of APC. After two rounds of stimulation, viable lymphocytes were separated by Ficoll-Hypaque density gradient centrifugation and were tested for specificity at a dose range of 0 to 50 μg/ml. NASE 101-120 peptide, which also binds I-A^s was used as a negative control. Lymphocytes were cultured in 96-well plates at a density of 5×10^5 cells per ml for 48 hrs, and were pulsed with ^3[H]-thymidine, 1 μCi per well. After sixteen hours of culture, plates were harvested and a Wallac scintillation counter (model 1250) was used to analyze the proliferative response determined by amount of ^3[H]-thymidine incorporation CPM. To determine the proliferative response of each of tg T cells expressing HLA-DR2 and human MBP 85-99-specific TCR, and non-tg T cells, the cells fractionated by flow cytometry were seeded in complete medium at 4×10^5 cells/well in 96-well U-bottom microtiter plates. Irradiated splenocytes of humanized mice were used as APC.
Therefore, MBP85-99-specific transgenic (hVβ2^+CD4^+) and endogenous (non-transgenic, hVβ2^−CD4^+) T cells were sorted by flow cytometry from spleen cells of humanized double transgenic mice.

HLA-DR2 (DRA/DRB1*1501) = biological target: T1, HLA-DR2 (DRA/DRB1*1501) (Homo sapiens, UniProt P01903+P01911); assay: Competitive binding assay for HLA-DR2: inhibition of biotinylated MBP 85-99 binding
T1 construct: isolate soluble HLA-DR2 molecules which had been expressed in Drosophila S2 cells; made in house; host or cells: Drosophila S2 cells
Protocol: The reaction mixtures were transferred to plates coated with LB3.1 Ab specific to HLA DR2 molecules. Following addition of streptavidin-conjugated alkaline phosphatase, absorbance was measured at 450 nm by using a microtiter plate reader. Percent inhibition was calculated as described in the Materials and Methods. […] These studies were performed as described ([…]. et al. 2002. J Clin Invest 109:1635). […] Antigen presentation assay was performed as described previously [[…]. et al. 2001 Hum Immunol 62:753].

Substance: PLP139-151: one of the most immunodominant and encephalitogenic epitopes of PLP in SJL/J mice (CHCLGKWLGHPDK; UniProt P60202 139-151, looked up, fragment)
- expansion of PLP tetramer reactive cells [1]: 1.5%
- IFN-γ production [2]: produced in significant amounts
- IL-2 production [2]: produced in significant amounts
- Secretion of IL-4 [2]: comparable in all of the cultures

Substance: poly(F,Y,A,K)n [FYAK]
- induction of immunosuppressive cytokines IL-4 and IL-10 [3]: most effective

Substance: poly[Y, E, A, K]n [Cop1]
- response of PLP139-151 specific cell line (cross reactivity) [4]: did not cross-react
- mean maximum score (EAE in SJL/J mice; at around day 22, co-immunized with PLP139-151, FIG. 5B): 2.5
- severity of EAE (in words) (EAE in SJL/J mice; co-immunized with PLP139-151, FIG. 5B): moderately suppressed
- reduction of relapse rate (relapsing-remitting MS): about 30%
- reduction of relapse rate (relapsing-remitting MS; listed as Copolymer 1): 30%
- mean maximal score [5]: 3.5
- proliferation of MBP85-99-specific transgenic or endogenous CD4+ cells [6]: did not cross-react
- % inhibition (HLA-DR2 (DRA/DRB1*1501); Binding of biotinylated MBP (0.5 μM) by peptide competitor (1 μM)): 8%
- inhibition of binding of biotinylated MBP 85-99 to HLA-DR2 (in words) (HLA-DR2 (DRA/DRB1*1501); recombinant HLA-DR2, FIG. 1A and Table 1): less efficiently than peptides J1, J2, J3 and J5
